Here are results for seven molecules from DBAASP.

Holding throughout (experiment): ≥ marks a high value that may be exact or a test limit, other limits are often not marked, values filed in µg/mL are converted to µM
In experiment [1] the test system is Escherichia coli KCCM 11569.
In experiment [2] the test system is Bacillus subtilis KCCM 11495.
In experiment [3] the test system is Trypanosoma cruzi.
For experiment [4], the system named is Psychrobacter faecalis X29.
The test system of experiment [5] is Rhodococcus rhodochrous X15.
The subject of experiment [6] is Enterococcus faecalis 981.
In experiment [7] the test system is Bacillus licheniformis X39.
Experiment [8] concerns Staphylococcus carnosus KHS.
In experiment [9] the test system is Escherichia coli ATCC 25922.
In experiment [10] the test system is Klebsiella pneumoniae 08040724.
Experiment [11] relates to Serratia rubidaea X01.
Experiment [12] relates to Staphylococcus aureus ATCC 25923.
Experiment [13] deals with Escherichia coli O157:H7.
For experiment [14], the system named is Staphylococcus aureus 1056.
For experiment [15], the system named is Staphylococcus aureus 930918-3.
Experiment [16] concerns Pseudomonas aeruginosa MR3007.
The subject of experiment [17] is Escherichia coli DSM 30083.
For experiment [18], the system named is Bacillus subtilis DSM 402.
For experiment [19], the system named is Candida tropicalis.
For experiment [20], the system named is Staphylococcus epidermidis ATCC 12228.
Experiment [21] has as its system Candida parapsilosis.
The subject of experiment [22] is Salmonella enterica subsp. enterica serovar Typhimurium ATCC 14028.
Experiment [23] concerns Serratia marcescens ATCC 8100.
The subject of experiment [24] is Streptococcus equinus.
In experiment [25] the test system is Bacillus megaterium Bm11.
The subject of experiment [26] is Staphylococcus aureus.
Experiment [27] deals with Rhodotorula mucilaginosa.
Experiment [28] deals with Escherichia coli ML-35.
Experiment [29] concerns Candida albicans.
In experiment [30] the test system is Pseudomonas aeruginosa ATCC 27853.
For experiment [31], the system named is Klebsiella pneumoniae ATCC 13883.
In experiment [32] the test system is Salmonella enterica subsp. enterica serovar Enteritidis.
The subject of experiment [33] is Klebsiella pneumoniae.

The structures appear in SMILES notation. ≈ marks a conversion by molar mass, not a printed value. Where “and” joins values, the source holds several entries; their conditions need not be identical. Equal values may be shown once.

On to `CC(C)C[C@H](NC(=O)CNC(=O)[C@H](Cc1cnc[nH]1)NC(=O)[C@H](Cc1cnc[nH]1)NC(=O)[C@H](CC(C)C)NC(=O)[C@H](CC(C)C)NC(=O)[C@H](C)NC(=O)[C@H](CC(N)=O)NC(=O)[C@H](CC(C)C)NC(=O)[C@@H](N)Cc1c[nH]c2ccccc12)C(=O)N[C@@H](CC(N)=O)C(=O)N[C@@H](CS)C(=O)N[C@@H](C)C(=O)N[C@@H](CCCCN)C(N)=O` [WLNALLHHGLNCAK], for which the MIC in experiment [1] and in experiment [2] was not below 40.3 µM each time.

For `CC[C@H](C)[C@H](NC(=O)[C@H](C)NC(=O)[C@H](Cc1cnc[nH]1)NC(=O)[C@@H]1CCCN1C(=O)[C@@H](NC(=O)[C@H](CC(C)C)NC(=O)[C@H](CO)NC(=O)[C@H](CC(C)C)NC(=O)[C@@H](N)Cc1ccccc1)[C@@H](C)CC)C(=O)N[C@@H](CC(N)=O)C(=O)N[C@@H](C)C(=O)N[C@H](C(=O)N[C@@H](CO)C(=O)N[C@H](C(=O)N[C@@H](CC(C)C)C(=O)N[C@H](C(=O)N[C@@H](Cc1cnc[nH]1)C(=O)N[C@@H](Cc1cnc[nH]1)C(=O)N[C@@H](CO)C(=O)NCC(N)=O)C(C)C)[C@@H](C)O)C(C)C` [FLSLIPHAINAVSTLVHHSG], in experiment [3], the MIC was found to be 14.2 µM (≈ 30 µg/mL).

As for `CC[C@H](C)[C@H](NC(=O)[C@H](CO)NC(=O)[C@H](Cc1ccccc1)NC(=O)[C@H](CC(C)C)NC(=O)[C@@H](N)CO)C(=O)N[C@@H](Cc1ccccc1)C(=O)N[C@@H](CCCCN)C(=O)N[C@H](C(=O)N[C@@H](C)C(=O)N[C@@H](C)C(=O)N[C@@H](CCCCN)C(=O)N[C@@H](Cc1ccccc1)C(=O)N[C@H](C(=O)NCC(=O)N[C@@H](CCCCN)C(=O)N[C@@H](CC(N)=O)C(=O)N[C@@H](CC(C)C)C(=O)N[C@@H](CC(C)C)C(=O)N[C@@H](CCCCN)C(=O)N[C@@H](CCC(N)=O)C(=O)N[C@@H](C)C(=O)NCC(=O)N[C@@H](CCCCN)C(=O)N[C@@H](C)C(=O)NCC(=O)N[C@@H](CC(C)C)C(=O)N[C@@H](CCC(=O)O)C(=O)N[C@H](C(=O)N[C@@H](CC(C)C)C(=O)N[C@@H](C)C(=O)N[C@H]1CSSC[C@@H](C(=O)O)NC(=O)[C@H](CCC(=O)O)NC(=O)[C@H](CC(N)=O)NC(=O)[C@H](CCCCN)NC(=O)[C@H](C)NC(=O)[C@H](CCCCN)NC1=O)[C@@H](C)O)C(C)C)[C@@H](C)O` [SLFSIFKTAAKFVGKNLLKQAGKAGLETLACKAKNEC], the MIC turned out to be 4.5 µM (≈ 17.7 µg/mL) in experiment [4]; 1.2 µM (≈ 4.71 µg/mL) in experiment [5]; 19 µM (≈ 74.6 µg/mL) in [6]; 9 µM (≈ 35.3 µg/mL) in [7]; 1.2 µM (≈ 4.71 µg/mL) in experiment [8]; 75 µM (≈ 295 µg/mL) in experiment [9]. Also, the MIC is not below 150 µM in [10], 1.2 µM (≈ 4.71 µg/mL) in [11] and 9 µM (≈ 35.3 µg/mL) in [12].

As to `CC[C@H](C)[C@@H]1NC(=O)[C@H](CCCN=C(N)N)NC(=O)[C@H](CC(C)C)NC(=O)CNC(=O)[C@@H]2CSSC[C@@H]3NC(=O)[C@H](CC(C)C)NC(=O)CNC(=O)[C@H](CC(C)C)NC(=O)[C@H](Cc4ccccc4)NC(=O)[C@H](CCCN=C(N)N)NC(=O)[C@H](CO)NC(=O)[C@@H]4CCCN4C(=O)[C@H](Cc4ccccc4)NC(=O)[C@H](CC(N)=O)NC(=O)[C@H](CSSC[C@@H](C(=O)N[C@@H](CO)C(=O)N[C@@H](CCCN=C(N)N)C(=O)N[C@H](C(=O)N[C@@H](Cc4c[nH]c5ccccc45)C(=O)N[C@H](C(=O)O)C(C)C)C(C)C)NC(=O)[C@H](CSSC[C@H](NC(=O)[C@H](CCC(N)=O)NC(=O)[C@H](C)NC(=O)[C@H](CCC(=O)O)NC(=O)[C@H](CC(N)=O)NC(=O)[C@@H](NC(=O)[C@@H]4CCCN4C(=O)[C@@H](N)CC(C)C)C(C)C)C(=O)N[C@@H](CCCN=C(N)N)C(=O)N[C@@H](CCC(N)=O)C(=O)N[C@@H](C(C)C)C(=O)NCC(=O)NCC(=O)N[C@@H](Cc4ccc(O)cc4)C(=O)N2)NC(=O)[C@@H]2CCCN2C(=O)[C@H](Cc2cnc[nH]2)NC(=O)[C@H](CC(N)=O)NC(=O)[C@H](CCCN=C(N)N)NC(=O)[C@H]([C@@H](C)O)NC3=O)NC1=O` [LPVNEAQCRQVGGYCGLRICNFPSRFLGLCTRNHPCCSRVWV], the MIC was determined as 2.53 µM (≈ 12 µg/mL) in [13] and 2.41 µM (≈ 11.5 µg/mL) in experiment [14].

In the case of `CC[C@H](C)[C@H](NC(=O)[C@H](CCCCN)NC(=O)[C@H](CCCCN)NC(=O)[C@H](CC(C)C)NC(=O)[C@H](CCCCN)NC(=O)[C@H](CCC(=O)O)NC(=O)[C@H](CCCCN)NC(=O)[C@@H](NC(=O)[C@H](CCCCN)NC(=O)[C@H](CC(N)=O)NC(=O)[C@H](CCCN=C(N)N)NC(=O)[C@H](Cc1ccccc1)NC(=O)[C@H](CCCCN)NC(=O)[C@H](CCCN=C(N)N)NC(=O)[C@H](CC(C)C)NC(=O)[C@H](CCCN=C(N)N)NC(=O)[C@H](CCCCN)NC(=O)[C@H](CCCN=C(N)N)NC(=O)[C@H](CC(C)C)NC(=O)CN)[C@@H](C)CC)C(=O)NCC(=O)O` [GLRKRLRKFRNKIKEKLKKIG], the MIC is 0.69 µM and 0.84 µM in experiment [15]; 0.27 µM and 0.34 µM in experiment [16].

`CC(=O)N[C@@H](CCCN=C(N)N)C(=O)N[C@@H](Cc1c[nH]c2ccccc12)C(=O)N[C@@H](CCCN=C(N)N)C(=O)N[C@@H](Cc1c[nH]c2ccccc12)C(=O)N[C@@H](CCCN=C(N)N)C(=O)N[C@@H](Cc1c[nH]c2ccccc12)C(N)=O` [RWRWRW]: the MIC in experiment [17] and in experiment [18] was not below 45 µM each time.

`CC(C)C[C@H](NC(=O)[C@H](CCC(N)=O)NC(=O)[C@H](CCC(=O)O)NC(=O)[C@H](CC(C)C)NC(=O)[C@H](Cc1ccccc1)NC(=O)[C@H](CCC(=O)O)NC(=O)[C@H](CCC(N)=O)NC(=O)[C@H](Cc1ccccc1)NC(=O)[C@H](CO)NC(=O)[C@H](CC(C)C)NC(=O)[C@@H]1CCCN1C(=O)[C@H](Cc1ccccc1)NC(=O)[C@H](Cc1c[nH]c2ccccc12)NC(=O)[C@H](Cc1cnc[nH]1)NC(=O)[C@H](CCCN=C(N)N)NC(=O)[C@H](CCCN=C(N)N)NC(=O)[C@@H](N)CCCCN)C(=O)N[C@@H](CCCN=C(N)N)C(=O)N[C@@H](CCCN=C(N)N)C(=O)N[C@@H](Cc1ccccc1)C(=O)N[C@@H](CCCN=C(N)N)C(=O)N[C@@H](CC(=O)O)C(=O)N[C@@H](CCC(N)=O)C(=O)N[C@@H](CC(C)C)C(=O)N1CCC[C@H]1C(=O)N[C@@H](Cc1ccccc1)C(=O)N1CCC[C@H]1C(=O)O` [KRRHWFPLSFQEFLEQLRRFRDQLPFP]: the MIC in experiment [19] turned out to be 31.9 µM (≈ 114 µg/mL); in [20], 7.97 µM (≈ 28.5 µg/mL); in [21] it was 31.9 µM (≈ 114 µg/mL); in experiment [22] it was 31.9 µM (≈ 114 µg/mL); in experiment [23], 7.97 µM (≈ 28.5 µg/mL); in experiment [24], 31.9 µM (≈ 114 µg/mL). Also, the minimum inhibitory concentration (MIC) in [25] is 3.92 µM (≈ 14 µg/mL); in experiment [26], 31.9 µM (≈ 114 µg/mL); in experiment [27], 31.9 µM and 15.9 µM; in experiment [28], 3.92 µM (≈ 14 µg/mL); in [29], more than 31.9 µM; in experiment [30] it was more than 31.9 µM. The MIC in experiment [31] was found to be 7.97 µM (≈ 28.5 µg/mL); in experiment [9], 3.92 µM (≈ 14 µg/mL); in experiment [32], 31.9 µM (≈ 114 µg/mL); in experiment [12] it was 15.9 µM (≈ 57 µg/mL); in [33] it was 31.9 µM (≈ 114 µg/mL).

For orientation: MIC means the least concentration at which growth counts as inhibited.
